# Measured values from US20140220552A1, “BLOOD COLLECTION DEVICES CONTAINING CONTACT PATHWAY INHIBITION ADDITIVES” (Becton, Dickinson and Company, priority 2013, published 2014).
# “Also recorded” adds a separate entry of the source.
# Experiments:
# [1] = tested on: contact coagulation pathway; assay: activated partial thromboplastin time (aPTT) assay in plasma; format: biochemical, human; conditions: plasma containing inhibitor, FIG. 6, anti-FXI antibody at 7.5 μg/mL
# Source text: (§1) FIG. 6 was obtained by performing matched aPTT, PT, and TT assays from plasma containing various inhibitors. These assays are well known to those skilled in the art and are not described in great detail here. […] Corn trypsin inhibitor (CTI) was included as a control since it is the factor XIIa inhibitor currently available in a blood collection tube.
# (§2) Citrated human WB is transferred from a blood collection bag into coated (siliconized) glass or plastic blood collection tubes, or uncoated glass, polypropylene (PP), polystyrene (PS), or polyethylene terephthalate (PET) conical bottom tubes, either alone or in the presence of inhibitors targeting kallikrein (e.g. aprotinin) or FXIa (e.g. anti-human Factor XI antibody). After 15 minutes incubation, the TEG R value is obtained immediately after addition of 10 mM CaCl2. Matched plasma specimens are analyzed by the CAT in the presence and absence of 1 picomolar Tissue Factor (TF) and by activated partial thromboplastin time (APTT; Stago Compact). Data are analyzed by ANOVA with Tukey's post-test and by linear regression.
# [2] = tested on: TF coagulation pathway; assay: PT assay in plasma (high dose tissue factor); format: biochemical, human; conditions: for thrombin generation in tests that monitor the TF coagulation pathway exclusively: identical samples as aPTT, FIG. 6 lower panels; for PT clotting time result: plasma containing inhibitor, FIG. 6
# Source text: as §1
# This verifies that aprotinin exclusively suppresses thrombin formation through the contact coagulation pathway but not through the TF pathway.
# [3] = tested on: thrombin; assay: TT assay in plasma (exogenous thrombin); format: biochemical, human; conditions: plasma containing inhibitor, FIG. 6
# Source text: as §1
# [4] = tested on: contact coagulation pathway; assay: Thrombelastography (TEG) citrated-native whole blood clotting time (R time) after recalcification; format: biochemical, human
# Method: FIGS. 2A and 2B are a table and chart comparing recalcified clotting times for tubes made from various materials using a Thrombelastograph® (TEG) 5000 Hemostasis Analyzer. […] Briefly, BD Vacutainer® 369714 glass and 363083 plastic citrate tubes were washed and dried to remove the citrate additive. Afterwards, tubes were filled to capacity using a commercial bag of citrated human whole blood. Samples were incubated for 15 minutes at room temperature with gentle rocking to promote blood contact with the surface material of the tube wall. Finally, the whole blood clotting time was measured using combined recalcification and TEG. […] Furthermore, it is important to note that only highly sensitive coagulation assays that are performed in the absence of a strong contact pathway activator will be sensitive to these differences.
# The titration was performed by evaluating whole blood clotting time (TEG R time). A minimally effective dose was determined at 1000 kallikrein inhibitor units (1000 KIU) per mL of blood as concentrations below that only provided mean clotting times that were either equivalent or lower to that of siliconized glass.
# The titration was performed by evaluating whole blood clotting time (TEG R time).
# as §2
# As shown in FIG. 4(A) various concentrations of aprotinin were used in tests to determine the impact on whole blood clotting time using TEG. […]
# [5] = tested on: thrombin generation; assay: Calibrated Automated Thrombogram (CAT) thrombin generation assay in citrated plasma; format: biochemical, human
# Source text: FIGS. 3A and 3B is a table and chart comparing thrombin generation from citrated plasma obtained from tubes made of various materials using the Calibrated Automated Thrombogram (CAT) assay. The CAT assay, rather than measuring coagulation, combines the use of a fluorogenic substrate that is cleaved in the presence of thrombin as well as a calibrator to provide a quantitative measurement of thrombin generation in a recalcified plasma sample. The predominant use of this assay is to examine the thrombin generation profile of a clinical research sample in response to tissue factor (TF). […] The charts contained in FIG. 3B provide example thrombin generation curves that were used to populate the data table in FIG. 3A.
# as §2, with “After 15 minutes incubation, the TEG R value is obtained immediately after addition of 10 mM CaCl2.” left out, “regression. […]” for “regression.”
# [6] = sterilization stability of the additive in a blood collection tube; format: physicochemical
# Source text: FIG. 7 provides a comparison of kallikrein, factor XIIa, and factor IX inhibition for the purposes of mitigating contact pathway contributions to thrombin generation.
# An advantage of using aprotinin over CTI or anti-Factor XI antibody is that neither of the latter two inhibitors can be present in a tube that has been sterilized.
Substance,aPTT result [1],thrombin generation in tests that monitor the TF coagulation pathway exclusively [2],PT clotting time result [2],TT clotting time result [3],"whole blood clotting time (TEG R time) ([4]; 2000 KIU/mL aprotinin, blood in uncoated glass, compared with siliconized glass or plastic)","minimally effective dose by whole blood clotting time (TEG R time) ([4]; aprotinin titration in citrated blood, lower concentrations gave clotting times equivalent or lower to siliconized glass)","aprotinin concentration mitigating the contact coagulation pathway in uncoated glass tubes to a level equivalent to siliconized glass or plastic tubes ([4]; citrated blood in uncoated glass tubes, TEG)","mitigation of contact pathway contributions to thrombin generation (CAT) ([5]; glass and plastic citrate tubes, FIG. 7)","thrombin generation (CAT), effect of increasing aprotinin ([5]; siliconized glass and plastic tubes, FIG. 4B)",aPTT result ([1]; listed as Aprotinin),sterilization stability [6]
Corn trypsin inhibitor [CTI],Equivalent inhibition,unaffected,none of the inhibitors produced prolonged PT or TT assays,none of the inhibitors produced prolonged PT or TT assays,,,,,,,
aprotinin,equivalent to or greater than the time to generate thrombin in the presence of CTI and anti-Factor XI antibody,unaffected,none of the inhibitors produced prolonged PT or TT assays,none of the inhibitors produced prolonged PT or TT assays,longer clotting times than that of blood stored in either siliconized glass or plastic,1000 KIU per mL of blood,≥ 1000 KIU/mL,robustly diminished; also recorded: equivalent to that of CTI and anti-Factor XI antibody,delays and reduces thrombin generation in a dose dependent fashion; also recorded: thrombin generation is decreased and delayed,dose dependent effect,sterilization stable
